{"source": "patent US20260157986A1", "about": "“METHODS OF TREATMENT OF PRIMARY BILIARY CHOLANGITIS” (Ipsen Pharma, priority 2024, published 2026)", "key": {"[1]": {"system": "participants with PBC and baseline ALP >1×ULN and <1.67×ULN", "experiment": "Phase IIIb randomised, double-blind, placebo-controlled, two-arm study (Example 1)", "type": "in vivo, human", "conditions": "80 mg once daily versus placebo; baseline ALP more than 1×ULN and at most 1.67×ULN"}, "[2]": {"system": "participants with PBC with inadequate response or intolerance to UDCA", "experiment": "ELATIVE phase III double-blind, randomised, placebo-controlled study (GFT505B-319-1, NCT04526665)", "type": "in vivo, human", "procedure": "This was assessed based on the primary endpoint, which combined reductions in ALP and total bilirubin (TB)."}, "subjects with PBC": {"system": "subjects with PBC", "experiment": "Clinical study, not further specified (Summary)", "type": "in vivo, human", "conditions": "treatment of subjects with elafibranor"}, "patients with PBC [3]": {"system": "patients with PBC", "conditions": "cited from earlier work"}, "patients with PBC [4]": {"system": "patients with PBC", "conditions": "in vivo; cited from earlier work"}}, "data": [{"smiles": "CSc1ccc(C(=O)/C=C/c2cc(C)c(OC(C)(C)C(=O)O)c(C)c2)cc1", "note": "[elafibranor]", "values": [{"measurement": "prevention of clinical outcome events showing disease worsening (including progression leading to liver transplant or death)", "setting": "[1]", "value": "better than placebo"}, {"measurement": "improvement in cholestasis (primary endpoint combining reductions in ALP and total bilirubin)", "setting": "[2]; compared to placebo, double-blind period", "value": "greater improvement in cholestasis compared to placebo"}, {"measurement": "safety and tolerability", "setting": "[2]; patients with PBC", "value": "safe and well-tolerated"}, {"measurement": "biochemical markers in the plasma", "setting": "subjects with PBC", "value": "relevant reduction of biochemical markers in the plasma"}]}, {"smiles": "CC[C@H]1[C@@H](O)[C@@H]2[C@H](CC[C@]3(C)[C@@H]([C@H](C)CCC(=O)O)CC[C@@H]23)[C@@]2(C)CC[C@@H](O)C[C@@H]12", "note": "[obeticholic acid]", "values": [{"measurement": "liver failure", "setting": "patients with PBC [3]; patients with advanced cirrhosis", "value": "reports of patients with advanced cirrhosis developing liver failure"}, {"measurement": "pruritus", "setting": "patients with PBC [3]; second line therapy", "value": "clinically significant pruritus has been reported in a significant portion of patients"}]}, {"smiles": "C[C@H](CCC(=O)O)[C@H]1CC[C@H]2[C@@H]3[C@@H](O)C[C@@H]4C[C@H](O)CC[C@]4(C)[C@H]3CC[C@]12C", "note": "[UDCA, Ursodeoxycholic acid]", "values": [{"measurement": "proportion of PBC patients intolerant to UDCA", "setting": "patients with PBC [4]", "value": "up to 5%"}]}]}
